BindingDB's records for patent US11787810 (Merck Sharp & Dohme, 2023)

The molecules below were run against T1, Diacylglycerol O-acyltransferase 2 (Homo sapiens, UniProt Q96PD7) (assay: DGAT2 Enzymatic Activity Assay).
T1 sequence (Q96PD7 whole entry): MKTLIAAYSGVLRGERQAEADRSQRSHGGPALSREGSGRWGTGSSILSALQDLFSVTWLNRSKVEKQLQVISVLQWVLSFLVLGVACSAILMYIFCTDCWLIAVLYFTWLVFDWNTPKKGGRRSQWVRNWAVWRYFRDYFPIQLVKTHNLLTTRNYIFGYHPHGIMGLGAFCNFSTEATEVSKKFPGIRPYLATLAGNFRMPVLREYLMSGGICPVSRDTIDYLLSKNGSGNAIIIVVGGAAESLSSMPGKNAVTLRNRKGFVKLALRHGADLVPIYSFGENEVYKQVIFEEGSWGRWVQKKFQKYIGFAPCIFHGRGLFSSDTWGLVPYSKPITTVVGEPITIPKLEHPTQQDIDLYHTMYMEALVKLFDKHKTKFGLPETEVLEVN
Description: DGAT2 activity was determined by measuring the amount of enzymatic product 13C18-triolein (13C-1,2,3-Tri(cis-9-octadecenoyl)glycerol) using the membrane prep mentioned above. The assay was carried out in ABgene 384-well assay plates in a final volume of 25 μL at rt. The assay mixture contained the following: assay buffer (100 mM Tris Cl, pH 7.0, 20 mM MgCl2, 5% ethanol), 25 μM of diolein, 5 μM of 13C oleoyl-CoA and 8 ng/μL of DGAT2 membrane.

IC50	SMILES
4.3 nM	CC(C)n1nc(-c2cccc(OC(F)F)c2)c2ncc(C(=O)NC3(C)CCS(=O)(=O)CC3)cc21 [US11787810, Example 32]
142 nM	CC(C)n1nc(-c2cccc(OCC#N)c2)c2ncc(C(=O)NC3(C)CS(=O)(=O)C3)cc21 [US11787810, Example 103]
7940 nM	CC(=O)N1CC(n2nc(-c3cccc(OC(F)F)c3)c3ncc(C(=O)NC4(C)CS(=O)(=O)C4)cc32)C1 [US11787810, Example 135]
